Marks after values point to notes of the source that are not given here.
Legend:
SIRT1 = target: T1, SIRT1 (Homo sapiens, UniProt Q96EB6); assay: SIRT1 activity, cell-free fluorimetric deacetylation assay; type: biochemical; conditions: cell-free system
T1 construct: purchased ENZO Life Sciences International, Inc. BML-AK555
T1 sequence (Q96EB6 1-747): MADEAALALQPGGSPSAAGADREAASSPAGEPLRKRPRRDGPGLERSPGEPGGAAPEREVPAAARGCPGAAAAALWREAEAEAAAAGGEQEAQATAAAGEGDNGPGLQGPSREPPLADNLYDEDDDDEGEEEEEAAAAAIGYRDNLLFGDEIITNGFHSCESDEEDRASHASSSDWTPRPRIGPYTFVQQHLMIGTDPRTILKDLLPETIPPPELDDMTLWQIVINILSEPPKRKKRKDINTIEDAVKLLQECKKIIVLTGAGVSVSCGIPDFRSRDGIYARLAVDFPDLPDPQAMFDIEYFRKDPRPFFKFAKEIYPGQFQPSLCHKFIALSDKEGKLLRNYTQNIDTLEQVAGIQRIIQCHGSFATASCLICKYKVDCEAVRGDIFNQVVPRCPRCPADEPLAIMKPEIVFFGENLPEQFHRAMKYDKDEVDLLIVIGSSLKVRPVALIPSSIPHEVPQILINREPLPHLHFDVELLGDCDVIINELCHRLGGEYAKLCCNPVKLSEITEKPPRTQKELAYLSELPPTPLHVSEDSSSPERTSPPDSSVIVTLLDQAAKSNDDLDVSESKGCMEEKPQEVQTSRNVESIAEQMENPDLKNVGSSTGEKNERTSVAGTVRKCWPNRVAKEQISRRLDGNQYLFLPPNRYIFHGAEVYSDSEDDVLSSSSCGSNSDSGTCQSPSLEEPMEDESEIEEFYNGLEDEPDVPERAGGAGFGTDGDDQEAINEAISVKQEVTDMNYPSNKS
Procedure: SIRT1 activity was measured by using the SIRT1 Fluorimetric Drug Discovery Kit (BML-AK555, ENZO Life Sciences International, Inc. PA, USA). In this assay, SIRT1 activity is assessed by the degree of deacetylation of a standardized substrate containing an acetylated lysine side chain. The substrate utilized is a peptide containing amino acids 379-382 of human p53 (Arg-His-Lys-Lys[Ac]), an established target of SIRT1 activity; SIRT1 activity is directly proportional to the degree of deacetylation of Lys-382. Samples were incubated with peptide substrate (25 μM), and NAD^+ (500 μM) in a phosphate-buffered saline solution at 37° C. on a horizontal shaker for 45 minutes. The reaction was stopped with the addition of 2 mM nicotinamide and a developing solution that binds to the deacetylated lysine to form a fluorophore. Following 10 minutes incubation at 37° C., fluorescence was read in a plate-reading fluorometer at an excitation wavelength of 360 nm and an emission wavelength of 450 nm. […] A standard curve was constructed using deacetylated substrate (0-10 μM).

[1] = test system: myotube mitochondrial biogenesis; assay: Myotube mitochondrial biogenesis (NAO binding), Example 1; type: cell-based; conditions: assessed fluorometrically via NAO binding
Procedure: We next investigated the role of intact leucine (0-0.5 mM) vs. its metabolites, α-ketoisocaproic acid (KIC) (0-0.5 mM) and HMB (0-50 μM). […] Both leucine and HMB increased myotube mitochondrial biogenesis (assessed fluorometrically via NAO binding) by ˜50%, (p<0.005, FIG. 3).

Adipocytes (3T3-L1) = assay: Fatty acid oxidation (3H-palmitate) in 3T3-L1 adipocytes; type: cell-based; conditions: high (25 mM) glucose, 4 hours; leucine 0.5 mM, HMB 5 uM, resveratrol 200 nM; vs. control
Procedure: High glucose medium reduced fatty acid oxidation by 46% (p<0.05).
Fatty acid oxidation was measured using ^3H-labeled palmitate oxidation, with the ^3H label trapped as water as a result of the fat oxidation. The ^3H was then measured via scintillation counter.

[2] = test system: PGC-1α, NRF-1 and UCP3 genes; assay: Expression of mitochondrial regulatory and component genes; type: cell-based
Adiponectin = Adiponectin in diet-induced obese mice; type: in vivo; conditions: 6 weeks on diet, low resveratrol 12.5 mg/kg diet, low HMB 2 g CaHMB/kg diet, high HMB 10 g CaHMB/kg diet, leucine 2.42% of diet
[3] = MicroPET/CT glucose and palmitate uptake in diet-induced obese mice; type: in vivo; conditions: 6 weeks on diet, low resveratrol 12.5 mg/kg diet, low HMB 2 g CaHMB/kg diet, high HMB 10 g CaHMB/kg diet, leucine 2.42% of diet
Description: (§1) Six week old male c57/BL6 mice were fed a high-fat diet with fat increased to 45% of energy (Research Diets D12451) for 6 weeks to induce obesity.
MicroPET/CT (Glucose and Palmitate Uptake): At the end of the treatment period (6 weeks of treatment) subgroups of each treatment diet group (5 animals/group, 35 animals total) were used to measure whole body glucose and palmitate uptake via PET/CT Imaging. To visualize these compounds using microPET imaging, the glucose or palmitate was labeled with fluorine-18 (108 mins half life) or carbon-11 (20 mins half life), respectively. Each mouse was fasted for 4 hours, then anesthetized using 1-3% isoflurane delivered by nose cone or in a mouse-sized induction chamber purpose-built for small animal imaging protocols. While under anesthesia the mice were injected iv with <2 mCi of each tracer, then be left for a period of time (minutes to up ˜1 hour) to allow the uptake of the tracer. During the scan, mice were kept warm using a thermostatically controlled heated bed and were treated with ophthalmic ointment prior to scanning. Following the live scan the mice were returned to their cage and revived. Mice were monitored constantly during this time. Following live data acquisition the mice were sacrificed by isoflurane overdose and organs harvested for further experiments.

[4] = Body weight, weight gain and visceral adiposity in diet-induced obese mice; type: in vivo; conditions: 6 weeks on diet, low resveratrol 12.5 mg/kg diet, low HMB 2 g CaHMB/kg diet, high HMB 10 g CaHMB/kg diet, leucine 2.42% of diet
Description: as §1
At the of the treatment period (6 weeks) all animals were humanely euthanized, and blood and tissues collected for further experiments.

With `CC(C)(O)CC(=O)O` [HMB] as the compound, how does the SIRT1 activity (SIRT1) read?
The SIRT1 activity was “significantly increased SIRT1 activity”.

And the “increase in myotube mitochondrial biogenesis” value [1]?
Its value is ~50%.

What about the “increase in fatty acid oxidation, high glucose” value (Adipocytes (3T3-L1)) of the same compound?
The value was 29%.

What about the “expression of mitochondrial regulatory (PGC-1α and NRF-1) and component (UCP3) genes” value [2] of the same compound?
Its value is “stimulated expression”.

What about the “Adiponectin (ng/mL)” value (Adiponectin) of the same compound?
The value was 11.1 ± 1.6^a ng/mL.

What about the “Fat oxidation (PET palmitate uptake; Muscle SUV)” value [3] of the same compound?
The value was 1.90 ± 0.29^a SUV.

What about the “Muscle Glucose Uptake (18F-deoxyglucose SUV)” value [3] of the same compound?
The value was 2.99 ± 0.42^a SUV.

What about the “Visceral Adipose Volume (mm^3)” value [4] of the same compound?
Its value is 6184 ± 460^a mm^3.

And the “Weight (g)” value [4]?
The value was 40.3 ± 2.1^a g.

And the “Weight gain” value [4]?
The value was 22.5 ± 1.2 g.
